Legend:
Format in all cases: physicochemical
[1] = Open dish stability study at 40° C./75% RH in open glass vials; conditions: for % Peak Area by UPLC, 2 weeks / % Peak Area by UPLC, Initial: 40° C./75% RH open; for Open dish stability, result in words: 40° C./75% RH, open glass vials
[2] = Stability in SIF (Simulated Intestinal Fluid), ester content by UPLC; conditions: SIF pH 6.8, 10 mg/mL in ACN diluted to 0.5 mg/mL, pinacol and pinanediol esters with 20%-30% final ACN
Protocol: (§1) The diluted solution was then analyzed for ester content by UPLC.
(§2) The same set of experiments were performed for the pinacol and pinanediol esters of Boronic Acid 1 except that additional ACN was added when diluting into SIF in order to maintain the compounds in solution (final ACN concentration of 20%-30% in diluted solutions in SIF).

[3] = Stability in SGF (Simulated Gastric Fluid), ester content by UPLC; conditions: SGF pH 1.2, 10 mg/mL in ACN diluted to 0.5 mg/mL
Protocol: as §1, §2

Row | SMILES | % Peak Area by UPLC, 2 weeks [1] [%] | % Peak Area by UPLC, Initial [1] [%] | Open dish stability, result in words [1] | Conversion of ester to Boronic Acid 1 in SIF [2] | Conversion of ester to Boronic Acid 1 in SGF [3]
1 | C[C@@H]1CN(C(C)(C)/C=C(\C#N)C(=O)N2CCCC[C@@H](OC(=O)N[C@@H](Cc3ccccc3)B(O)O)C2)CCO1 [Boronic Acid 1, ((R)-1-(((((R)-1-((E)-2-cyano-4-methyl-4-((R)-2-methylmorpholino)pent-2-enoyl)azepan-3-yl)oxy)carbonyl)amino)-2-phenylethyl)boronic acid] | 85.9 | 95.8 | significantly degraded after two weeks |  | 
2 | C[C@@H]1CN(C(C)(C)C=C(C#N)C(=O)N2CCCC[C@@H](OC(=O)N[C@@H](Cc3ccccc3)B3OC(C)(C)C(C)(C)O3)C2)CCO1 [Pinacol ester of Boronic Acid 1, (R)-1-(2-cyano-4-methyl-4-((R)-2-methylmorpholino)pent-2-enoyl)azepan-3-yl ((R)-2-phenyl-1-(4,4,5,5-tetramethyl-1,3,2-dioxaborolan-2-yl)ethyl)carbamate] | 70.9 | 95.5 | significantly degraded after two weeks | completely converted to Boronic Acid 1 immediately | completely converted to Boronic Acid 1 immediately
3 | C[C@@H]1CN(C(C)(C)/C=C(\C#N)C(=O)N2CCCC[C@@H](OC(=O)N[C@@H](Cc3ccccc3)B3O[C@@H]4C[C@@H]5C[C@@H](C5(C)C)[C@]4(C)O3)C2)CCO1 [Pinanediol ester of Boronic Acid 1] | 90.6 | 93.5 | significantly degraded after two weeks | only partially converted to Boronic Acid 1 | only partially converted to Boronic Acid 1

— patent publication US20260265274A1, “Cyclic Boronic Esters and Their Uses” (Principia Biopharma Inc., priority 2022, published 2026)
